Assay results: the Kinase Knowledgebase extract (Sharma et al. 2016)

Tests used:
PIK3CG (human) [1] = molecular target: PIK3CG (human) (UniProt P48736); assay: Enzyme Assay
PIK3CA (human) [2] = molecular target: PIK3CA (human) (UniProt P42336); assay: Enzyme Assay
PIK3CD (Human) [3] = molecular target: PIK3CD (Human) (UniProt O00329); assay: Enzyme Assay
PIK3CG (human) [4] = molecular target: PIK3CG (human) (UniProt P48736); assay: Cell-Based Assay; details: u937
PIK3CA (human) [5] = molecular target: PIK3CA (human) (UniProt P42336); assay: Cell-Based Assay; details: rat-1
PIK3CD (Human) [6] = molecular target: PIK3CD (Human) (UniProt O00329); assay: Cell-Based Assay; details: rat-1

Chain of PIK3CA (human) (P42336 whole entry, looked up): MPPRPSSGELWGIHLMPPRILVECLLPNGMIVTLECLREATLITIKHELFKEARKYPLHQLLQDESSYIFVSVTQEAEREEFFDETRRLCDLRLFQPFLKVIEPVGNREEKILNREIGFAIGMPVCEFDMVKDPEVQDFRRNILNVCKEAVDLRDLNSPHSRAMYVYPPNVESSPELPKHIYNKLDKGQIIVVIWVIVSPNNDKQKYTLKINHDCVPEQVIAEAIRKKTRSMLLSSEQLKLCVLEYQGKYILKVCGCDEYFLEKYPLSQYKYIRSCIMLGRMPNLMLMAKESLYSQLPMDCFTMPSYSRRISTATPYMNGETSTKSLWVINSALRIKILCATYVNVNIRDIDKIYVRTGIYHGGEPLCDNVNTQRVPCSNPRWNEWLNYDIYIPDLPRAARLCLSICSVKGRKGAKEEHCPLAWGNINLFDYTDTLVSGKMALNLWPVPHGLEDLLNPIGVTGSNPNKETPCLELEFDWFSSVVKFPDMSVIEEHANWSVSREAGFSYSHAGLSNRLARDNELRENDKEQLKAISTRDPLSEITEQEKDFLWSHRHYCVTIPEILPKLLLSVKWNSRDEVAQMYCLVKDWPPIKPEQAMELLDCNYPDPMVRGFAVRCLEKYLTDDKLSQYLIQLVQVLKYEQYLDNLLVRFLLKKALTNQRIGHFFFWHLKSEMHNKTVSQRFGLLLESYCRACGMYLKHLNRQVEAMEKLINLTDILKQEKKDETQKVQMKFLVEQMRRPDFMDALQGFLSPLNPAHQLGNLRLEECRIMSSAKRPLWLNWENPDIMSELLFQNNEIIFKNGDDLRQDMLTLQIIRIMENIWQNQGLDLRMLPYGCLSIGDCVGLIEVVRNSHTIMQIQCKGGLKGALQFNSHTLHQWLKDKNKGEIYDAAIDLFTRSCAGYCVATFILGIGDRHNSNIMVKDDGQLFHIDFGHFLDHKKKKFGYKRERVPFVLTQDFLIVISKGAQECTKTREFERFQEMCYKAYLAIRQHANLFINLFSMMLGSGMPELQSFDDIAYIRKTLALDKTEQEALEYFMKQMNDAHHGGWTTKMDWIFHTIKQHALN
Chain of PIK3CD (Human) (O00329 whole entry, looked up): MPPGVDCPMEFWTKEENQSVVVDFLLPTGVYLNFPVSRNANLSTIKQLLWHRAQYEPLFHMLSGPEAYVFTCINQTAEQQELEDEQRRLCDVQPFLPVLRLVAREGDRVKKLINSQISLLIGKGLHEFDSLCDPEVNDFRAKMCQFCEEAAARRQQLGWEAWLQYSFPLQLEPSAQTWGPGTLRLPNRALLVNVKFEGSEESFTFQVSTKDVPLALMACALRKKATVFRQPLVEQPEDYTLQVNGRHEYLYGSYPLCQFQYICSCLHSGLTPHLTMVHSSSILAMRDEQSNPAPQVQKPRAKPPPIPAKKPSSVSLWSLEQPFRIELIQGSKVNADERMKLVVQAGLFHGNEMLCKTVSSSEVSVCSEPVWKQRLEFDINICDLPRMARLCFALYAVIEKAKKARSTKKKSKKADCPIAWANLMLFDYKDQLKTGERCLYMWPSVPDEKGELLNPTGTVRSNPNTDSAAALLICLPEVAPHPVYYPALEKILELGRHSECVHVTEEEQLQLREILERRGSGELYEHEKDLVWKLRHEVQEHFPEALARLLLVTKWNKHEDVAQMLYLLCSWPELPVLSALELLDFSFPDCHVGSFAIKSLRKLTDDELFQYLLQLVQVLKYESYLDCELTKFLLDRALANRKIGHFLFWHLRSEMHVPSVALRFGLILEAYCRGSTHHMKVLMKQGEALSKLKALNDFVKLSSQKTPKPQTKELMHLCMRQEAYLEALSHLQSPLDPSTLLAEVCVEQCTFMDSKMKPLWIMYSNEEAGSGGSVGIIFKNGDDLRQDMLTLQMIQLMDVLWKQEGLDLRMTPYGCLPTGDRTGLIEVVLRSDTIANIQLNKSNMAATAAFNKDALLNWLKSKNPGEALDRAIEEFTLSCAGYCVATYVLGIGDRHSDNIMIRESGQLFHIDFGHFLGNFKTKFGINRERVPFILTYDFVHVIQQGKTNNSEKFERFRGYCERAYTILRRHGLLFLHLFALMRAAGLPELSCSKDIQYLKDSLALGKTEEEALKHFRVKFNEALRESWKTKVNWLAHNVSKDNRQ
Chain of PIK3CG (human) (P48736 whole entry, looked up): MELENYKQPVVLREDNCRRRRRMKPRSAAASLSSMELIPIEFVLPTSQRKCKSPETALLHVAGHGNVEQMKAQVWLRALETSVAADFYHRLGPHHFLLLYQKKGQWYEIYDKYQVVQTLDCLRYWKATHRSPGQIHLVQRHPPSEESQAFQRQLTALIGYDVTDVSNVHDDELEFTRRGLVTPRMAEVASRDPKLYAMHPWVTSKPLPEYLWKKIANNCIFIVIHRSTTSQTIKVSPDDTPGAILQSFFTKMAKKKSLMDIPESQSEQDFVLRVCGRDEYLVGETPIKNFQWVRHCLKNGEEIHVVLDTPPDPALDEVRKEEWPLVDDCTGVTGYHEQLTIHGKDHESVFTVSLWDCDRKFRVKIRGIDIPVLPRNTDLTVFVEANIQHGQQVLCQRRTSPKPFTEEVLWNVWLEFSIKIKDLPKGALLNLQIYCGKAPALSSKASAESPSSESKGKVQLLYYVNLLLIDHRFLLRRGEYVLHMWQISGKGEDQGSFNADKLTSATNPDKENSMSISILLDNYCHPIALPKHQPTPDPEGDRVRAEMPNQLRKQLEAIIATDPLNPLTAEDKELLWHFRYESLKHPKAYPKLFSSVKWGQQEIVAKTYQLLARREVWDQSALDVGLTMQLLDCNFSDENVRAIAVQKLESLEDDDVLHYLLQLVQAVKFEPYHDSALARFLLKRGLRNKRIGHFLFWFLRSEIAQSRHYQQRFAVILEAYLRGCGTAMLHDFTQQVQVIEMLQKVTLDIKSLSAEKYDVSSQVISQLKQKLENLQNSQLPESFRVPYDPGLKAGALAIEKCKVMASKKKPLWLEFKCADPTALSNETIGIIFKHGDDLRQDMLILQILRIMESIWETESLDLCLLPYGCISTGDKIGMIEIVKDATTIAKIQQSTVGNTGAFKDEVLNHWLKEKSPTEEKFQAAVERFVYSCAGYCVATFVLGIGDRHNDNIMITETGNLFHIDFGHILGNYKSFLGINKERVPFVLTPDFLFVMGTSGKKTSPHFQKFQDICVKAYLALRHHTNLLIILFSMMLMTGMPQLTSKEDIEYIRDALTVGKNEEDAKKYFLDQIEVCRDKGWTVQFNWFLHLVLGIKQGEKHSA

Row | SMILES | IC50 (PIK3CG (human) [1]) [nM] | IC50 (PIK3CA (human) [2]) [nM] | IC50 (PIK3CD (Human) [3]) [nM] | IC50 (PIK3CG (human) [4]) [nM] | IC50 (PIK3CA (human) [5]) [nM] | IC50 (PIK3CD (Human) [6]) [nM]
1 | O=c1c2c(C(F)(F)F)cccc2nc([C@@H]2C[C@H](F)CN2c2ncnc3[nH]cnc23)n1-c1ccccc1 | 68 | 3600 | < 3 | 88 | 5230 | 33
2 | Nc1nc(N2CCC[C@H]2c2nc3cccc(Cl)c3c(=O)n2-c2cccnc2)c2nc[nH]c2n1 | 24 | 1500 | 8 | 675 | > 10000 | 77
3 | Cc1nc(N)nc(N2CCC[C@H]2c2nc3cccc(C(F)(F)F)c3c(=O)n2-c2cncc(F)c2)c1C#N | 240 | 4500 | 50 | 92 | 8740 | 56
4 | Cc1nc(N)nc(N2C[C@@H](O)C[C@H]2c2nc3cccc(C(F)(F)F)c3c(=O)n2-c2cc(F)cc(F)c2)c1C#N | 890 | 3100 | 97 | 60 | 8840 | 42
5 | O=c1c2c(Cl)cccc2nc([C@@H]2C[C@H](O)CN2c2ncnc3[nH]cnc23)n1-c1ccccc1 | 19 | 1400 | 5 | 178 | 4310 | 21
6 | CS(=O)(=O)c1c(F)ccc2nc([C@@H]3CCCN3c3ncnc(N)c3C#N)n(-c3ccccc3)c(=O)c12 | 7200 | 4500 | 84 | > 10000 | > 10000 | 65
7 | N#Cc1c(N)ncnc1N1C[C@@H](O)C[C@H]1c1nc2cccc(C(F)(F)F)c2c(=O)n1-c1cccnc1 | 1300 | 3800 | 84 | 163 | 3860 | 86
8 | Cc1nc(N)nc(N2C[C@@H](O)C[C@H]2c2nc3ccc(F)c(C4CC4)c3c(=O)n2-c2ccccc2)c1C#N | 11 | 110 | 4 | 35 | 2370 | 6
9 | Cc1nc(N)nc(N2CCC[C@H]2c2nc3cccc(C(F)(F)F)c3c(=O)n2-c2cncnc2)c1C#N | 230 | 4200 | 100 | 306 | > 10000 | 295
10 | Nc1nc(N2CCC[C@H]2c2nc3cccc(Cl)c3c(=O)n2N2CCOCC2)c2nccn2n1 | 190 | 2600 | 22 | 399 | > 10000 | 130
11 | Nc1nc(N2C[C@@H](O)C[C@H]2c2nc3cccc(C(F)(F)F)c3c(=O)n2-c2ccccc2)c2ncsc2n1 | 37 | 2500 | 27 | 55 | 5310 | 89
12 | Nc1nc(N2CCC[C@H]2c2nc3cccc(C(F)(F)F)c3c(=O)n2-c2ccccc2)c2ncsc2n1 | 87 | 1700 | 48 | 40 | > 10000 | 110
13 | Cc1ccccc1-n1c([C@@H]2CCCN2c2ncnc(N)c2C#N)nc2cccc(Cl)c2c1=O | 70 | 5210 | < 3 | 27 | 2200 | 13
14 | N#Cc1c(N)ncnc1N1CCC[C@H]1c1nc2cccc(O)c2c(=O)n1-c1ccccc1 | 110 | 1430 | 3 | 494 | > 10000 | 15

The remaining molecules from weak to strong by IC50 (PIK3CG (human) [1]), led by results:

Row | IC50 (PIK3CG (human) [1]) [nM] | IC50 (PIK3CA (human) [2]) [nM] | IC50 (PIK3CD (Human) [3]) [nM] | IC50 (PIK3CG (human) [4]) [nM] | IC50 (PIK3CA (human) [5]) [nM] | IC50 (PIK3CD (Human) [6]) [nM] | SMILES
15 | 2100 | > 10000 | 82 | 709 | > 10000 | 23 | N#Cc1c(N)ncnc1N1C[C@@H](O)C[C@H]1c1nc2cccc(F)c2c(=O)n1-c1ccccc1
16 | 1300 | 4000 | 96 | 1590 | > 10000 | 45 | N#Cc1c(N)ncnc1N1C[C@@H](O)C[C@H]1c1nc2ccc(F)c(F)c2c(=O)n1-c1ccccc1
17 | 990 | 2800 | 47 | 26 | 8020 | 27 | N#Cc1c(N)ncnc1N1C[C@@H](O)C[C@H]1c1nc2ccc(F)c(Cl)c2c(=O)n1-c1ccccc1
18 | 950 | 2700 | 75 | 934 | 5930 | 98 | N#Cc1c(N)ncnc1N1CCC[C@H]1c1nc2cccc(C(F)(F)F)c2c(=O)n1-c1cccnc1
19 | 650 | 3000 | 19 | 148 | > 10000 | < 3 | N#Cc1c(N)ncnc1N1CCC[C@H]1c1nc2cccc(F)c2c(=O)n1-c1ccccc1
20 | 320 | 6600 | 390 | 113 | > 10000 | 141 | N#Cc1cnc(N)nc1N1C[C@@H](O)C[C@H]1c1nc2cccc(C(F)(F)F)c2c(=O)n1-c1ccccc1
21 | 220 | 1800 | 960 | 206 | > 10000 | 67 | Cc1nc(N)nc(N2C[C@@H](O)C[C@H]2c2nc3cccc(C(F)(F)F)c3c(=O)n2-c2cccnc2)c1C#N
22 | 93 | 2800 | 67 | 312 | > 10000 | 8040 | Nc1nc(N2CCC[C@H]2c2nc3cccc(C(F)(F)F)c3c(=O)n2-c2ccccc2)c2nccn2n1
23 | 86 | 1000 | 12 | 24 | 6240 | 9 | Cc1nc(N)nc(N2C[C@@H](O)C[C@H]2c2nc3cccc(Cl)c3c(=O)n2-c2cccnc2)c1C#N
24 | 55 | 2400 | 8 | 31 | 766 | 10 | N#Cc1c(N)ncnc1N1C[C@@H](F)C[C@H]1c1nc2cccc(C(F)(F)F)c2c(=O)n1-c1ccccc1
25 | 50 | 1000 | 4 | 268 | 2850 | < 3 | N#Cc1c(N)ncnc1N1C[C@@H](O)C[C@H]1c1nc2cccc(Cl)c2c(=O)n1-c1ccccc1
26 | 48 | 4400 | 64 | 76 | > 10000 | 240 | Nc1nc(N2C[C@@H](F)C[C@H]2c2nc3cccc(C(F)(F)F)c3c(=O)n2-c2cccnc2)c2nc[nH]c2n1
27 | 35 | 1300 | 4 | 209 | 4040 | 10 | CO[C@H]1C[C@@H](c2nc3cccc(Cl)c3c(=O)n2-c2ccccc2)N(c2ncnc(N)c2C#N)C1
28 | 27 | 510 | 11 | 38 | 7540 | 87 | Nc1nc(N2C[C@@H](O)C[C@H]2c2nc3cccc(C(F)(F)F)c3c(=O)n2-c2ccccc2)c2nc[nH]c2n1
29 | 27 | 1000 | 11 | 352 | 5480 | 43 | CO[C@H]1C[C@@H](c2nc3cccc(Cl)c3c(=O)n2-c2ccccc2)N(c2ncnc3[nH]cnc23)C1
30 | 19 | 590 | < 3 | 37 | 4230 | 5 | CC1(n2c([C@@H]3CCCN3c3ncnc(N)c3C#N)nc3cccc(Cl)c3c2=O)CC1
